In ChEMBL document CHEMBL3414470, “Synthesis and biological evaluation of 4-oxycoumarin derivatives as a new class of antifilarial agents” (Eur J Med Chem, 2015):
In brackets after ≈: the same amount, converted by molar mass.

How the values were obtained:
Brugia malayi [1] = assay: Antifilarial activity against Brugia malayi adult worm assessed as reduction in motility at 1.25 uM after 5 days by MTT dye reduction assay; type: functional; details: 120 h
Brugia malayi [2] = assay: Antifilarial activity against Brugia malayi adult worm assessed as reduction in motility at 0.625 uM after 5 days by MTT dye reduction assay; type: functional; details: 120 h
Brugia malayi [3] = assay: Antifilarial activity against Brugia malayi adult worm assessed as reduction in motility at 0.312 uM after 5 days by MTT dye reduction assay; type: functional; details: 120 h
Brugia malayi [4] = assay: Antifilarial activity against Brugia malayi adult worm assessed as reduction in motility at 0.156 uM after 5 days by MTT dye reduction assay; type: functional; details: 120 h
Brugia malayi [5] = assay: Antifilarial activity against Brugia malayi adult worm assessed as reduction in motility at 0.078 uM after 5 days by MTT dye reduction assay; type: functional; details: 120 h
Brugia malayi [6] = assay: Antifilarial activity against Brugia malayi adult worm assessed as reduction in motility at 0.039 uM after 5 days by MTT dye reduction assay; type: functional; details: 120 h
Brugia malayi [7] = assay: Antifilarial activity against Brugia malayi adult worm assessed as reduction in motility at 0.019 uM after 5 days by MTT dye reduction assay; type: functional; details: 120 h
Brugia malayi [8] = assay: Antifilarial activity against Brugia malayi microfilaria assessed as reduction in motility at 1.25 uM after 5 days by MTT dye reduction assay; type: functional; details: 120 h
Brugia malayi [9] = assay: Antifilarial activity against Brugia malayi microfilaria assessed as reduction in motility at 0.625 uM after 5 days by MTT dye reduction assay; type: functional; details: 120 h
Brugia malayi [10] = assay: Antifilarial activity against Brugia malayi microfilaria assessed as reduction in motility at 0.312 uM after 5 days by MTT dye reduction assay; type: functional; details: 120 h
Brugia malayi [11] = assay: Antifilarial activity against Brugia malayi microfilaria assessed as reduction in motility at 0.156 uM after 5 days by MTT dye reduction assay; type: functional; details: 120 h
Brugia malayi [12] = assay: Antifilarial activity against Brugia malayi microfilaria assessed as reduction in motility at 0.078 uM after 5 days by MTT dye reduction assay; type: functional; details: 120 h
Brugia malayi [13] = assay: Antifilarial activity against Brugia malayi microfilaria assessed as reduction in motility at 0.039 uM after 5 days by MTT dye reduction assay; type: functional; details: 120 h
Brugia malayi [14] = assay: Antifilarial activity against Brugia malayi microfilaria assessed as reduction in motility at 0.019 uM after 5 days by MTT dye reduction assay; type: functional; details: 120 h
Brugia malayi [15] = assay: Antifilarial activity against Brugia malayi adult worm assessed as reduction in motility after 5 days by MTT dye reduction assay; type: functional, organism-based; details: Brugia malayi, 120 h
[16] = Selectivity index, ratio of CC50 for African green monkey Vero cells to IC50 for Brugia malayi adult worm; type: functional
Brugia malayi [17] = assay: Antifilarial activity against Brugia malayi microfilaria assessed as reduction in motility after 5 days by MTT dye reduction assay; type: functional, organism-based; details: Brugia malayi, 120 h
[18] = Selectivity index, ratio of CC50 for African green monkey Vero cells to IC50 for Brugia malayi microfilaria; type: functional
[19] = Cytotoxicity against African green monkey Vero cells after 72 hrs by resazurin dye-based fluorescence assay; type: cell-based; details: chlorocebus sabaeus, Vero cells
Brugia malayi [20] = assay: Antifilarial activity against Brugia malayi adult worm infected in jird model assessed as adulticidal activity at 100 mg/kg, sc after 5 days measured till day 45 relative to control; type: functional; details: route subcutaneous
Brugia malayi [21] = assay: Antifilarial activity against Brugia malayi adult worm infected in jird model assessed as sterile female at 100 mg/kg, sc after 5 days measured till day 45 relative to control; type: functional; details: route subcutaneous
Brugia malayi [22] = assay: Antifilarial activity against Brugia malayi microfilariae infected in jird model assessed as microfilaricidal activity at 100 mg/kg, sc after 5 days measured till day 45 relative to control; type: functional; details: route subcutaneous
Brugia malayi [23] = assay: Ratio of ivermectin IC50 to compound IC50 for Brugia malayi adult worm; type: functional
Brugia malayi [24] = assay: Ratio of ivermectin IC50 to compound IC50 for Brugia malayi microfilariae; type: functional

CCCCCCCCCCCCNCC(O)COc1cc(=O)oc2ccccc12 (stereo unspecified)
inhibition at 1.25 µM (Brugia malayi [1]): 99.5%
inhibition at 0.625 µM (Brugia malayi [2]): 92.4%
inhibition at 0.312 µM (Brugia malayi [3]): 90.8%
inhibition at 0.156 µM (Brugia malayi [4]): 75.5%
inhibition at 0.078 µM (Brugia malayi [5]): 56%
inhibition at 0.039 µM (Brugia malayi [6]): 50%
inhibition at 0.019 µM (Brugia malayi [7]): 30%
inhibition at 1.25 µM (Brugia malayi [8]): 100%
inhibition at 0.625 µM (Brugia malayi [9]): 75%
inhibition at 0.312 µM (Brugia malayi [10]): 75%
inhibition at 0.156 µM (Brugia malayi [11]): 75%
inhibition at 0.078 µM (Brugia malayi [12]): 75%
inhibition at 0.039 µM (Brugia malayi [13]): 75%
inhibition at 0.019 µM (Brugia malayi [14]): 50%
IC50 (Brugia malayi [15]): 14 nM
MIC (Brugia malayi [15]): 1.25 µM (≈ 0.504 µg/mL)
Ratio CC50/IC50 [16]: >7142
IC50 (Brugia malayi [17]): 5.6 nM
MIC (Brugia malayi [17]): 0.625 µM (≈ 0.252 µg/mL)
Ratio CC50/IC50 [18]: >17857
CC50 at 72 h [19]: > 100000 nM
Activity (Brugia malayi [20]): 74.9%
Activity (Brugia malayi [21]): 19.3%
Activity (Brugia malayi [22]): 50.8%
Ratio IC50 (Brugia malayi [23]): 129
Ratio IC50 (Brugia malayi [24]): 714
